Oligonucleotides are written 5' to 3', each unit as a sugar letter and its base; * is a phosphorothioate linkage, no mark a phosphodiester; rarer units and linkages stand in square brackets, end groups in braces. Plain capitals give the bases only. e = 2'-O-(2-methoxyethyl) (MOE); [5mC] = 5-methylcytosine; d = 2'-deoxy (DNA)
Tests used:
[1] = test system: murine TTC39A mRNA; test: Antisense inhibition of mouse TTC39A in b.END cells, single dose; type: cell-based; conditions: 70 nM, cytofectin, ~24 h, vs untreated control
Protocol: Antisense oligonucleotides were designed targeting a TTC39A nucleic acid and were tested for their effects on TTC39A mRNA in vitro. Cultured b.END cells at a density of 4,000 cells per well were transfected using cytofectin reagent with 70 nM antisense oligonucleotide. After a treatment period of approximately 24 hours, RNA was isolated from the cells and TTC39A mRNA levels were measured by quantitative real-time PCR. Mouse primer probe set RTS3262 (forward sequence TGTGCGTCATGCTGTTGCT, designated herein as SEQ ID NO: 113; reverse sequence […], designated herein as SEQ ID NO: 114; probe sequence […], designated herein as SEQ ID NO: 115). TTC39A mRNA levels were adjusted according to total RNA content, as measured by RIBOGREEN®. Results are presented as percent inhibition of TTC39A, relative to untreated control cells.
The chimeric antisense oligonucleotides targeting TTC39A were designed as 5-10-5 MOE gapmers. The gapmers are 20 nucleotides in length, wherein the central gap segment is comprised of ten 2′-deoxynucleotides and is flanked on both sides (in the 5′ and 3′ directions) by wings comprising five nucleotides each. Each nucleotide in the 5′ wing segment and each nucleotide in the 3′ wing segment has a 2′-MOE modification. The internucleoside linkages throughout each gapmer are phosphorothioate (P═S) linkages. All cytosine residues throughout each gapmer are 5-methylcytosines. “Mouse Target start site” indicates the 5′-most nucleotide to which the gapmer is targeted in a mouse nucleic acid sequence.

[2] = test system: murine TTC39A mRNA; test: Dose-dependent antisense inhibition of murine TTC39A in b.END cells; type: cell-based, mouse; conditions: ~16 h; for IC50: cytofectin
Protocol: Cells were plated at a density of 3,500 cells per well and transfected using cytofectin reagent with 4.375 nM, 8.75 nM, 17.5 nM, 35 nM, 70 nM, and 140 nM concentrations of antisense oligonucleotide, as specified in Table 28. After a treatment period of approximately 16 hours, RNA was isolated from the cells and TTC39A mRNA levels were measured by quantitative real-time PCR. Murine primer probe set RTS3262 was used to measure mRNA levels. TTC39A mRNA levels were adjusted according to total RNA content, as measured by RIBOGREEN®. Results are presented as percent inhibition of TTC39A, relative to untreated control cells.

Question: Which results are given for “TCCTTGCTCAGCAGGTCGGC (eT*e[5mC]*e[5mC]*eT*eT*dG*d[5mC]*dT*d[5mC]*dA*dG*d[5mC]*dA*dG*dG*eT*e[5mC]*eG*eG*e[5mC]; antisense) [ISIS 474366]”?
Answer: % inhibition of murine TTC39A mRNA [1]: 93%; percent inhibition of TTC39A mRNA ([2]; 4.375 nM): 0%; percent inhibition of TTC39A mRNA ([2]; 8.75 nM): 0%; percent inhibition of TTC39A mRNA ([2]; 17.5 nM): 23%; percent inhibition of TTC39A mRNA ([2]; 35.0 nM): 45%; percent inhibition of TTC39A mRNA ([2]; 70.0 nM): 64%; percent inhibition of TTC39A mRNA ([2]; 140.0 nM): 80%; IC50 [2]: 43 nM

Question: “TGCACTGGTCCAGGGCCTCA (eT*eG*e[5mC]*eA*e[5mC]*dT*dG*dG*dT*d[5mC]*d[5mC]*dA*dG*dG*dG*e[5mC]*e[5mC]*eT*e[5mC]*eA; antisense) [ISIS 474351]” was tested. Which “% inhibition of murine TTC39A mRNA” value [1] did it give?
Answer: The value was 94%.

Question: And the “percent inhibition of TTC39A mRNA” value ([2]; 4.375 nM)?
Answer: The value was 6%.

Question: What about the “percent inhibition of TTC39A mRNA” value ([2]; 8.75 nM) of the same sequence?
Answer: Its value is 0%.

Question: And the “percent inhibition of TTC39A mRNA” value ([2]; 17.5 nM)?
Answer: The value was 8%.

Question: And the “percent inhibition of TTC39A mRNA” value ([2]; 35.0 nM)?
Answer: The value was 48%.

Question: And the “percent inhibition of TTC39A mRNA” value ([2]; 70.0 nM)?
Answer: Its value is 66%.

Question: What about the “percent inhibition of TTC39A mRNA” value ([2]; 140.0 nM) of the same sequence?
Answer: The value was 84%.

Question: And the IC50 [2]?
Answer: Its IC50 is 44 nM.

Question: Which “% inhibition of murine TTC39A mRNA” value [1] does the source give for “AGTTGGGACCCAGAAGGCCT (eA*eG*eT*eT*eG*dG*dG*dA*d[5mC]*d[5mC]*d[5mC]*dA*dG*dA*dA*eG*eG*e[5mC]*e[5mC]*eT; antisense) [ISIS 474497]” here?
Answer: Its value is 94%.

Question: What about the “percent inhibition of TTC39A mRNA” value ([2]; 4.375 nM) of the same sequence?
Answer: The value was 8%.

Question: What about the “percent inhibition of TTC39A mRNA” value ([2]; 8.75 nM) of the same sequence?
Answer: Its value is 5%.

Question: And the “percent inhibition of TTC39A mRNA” value ([2]; 17.5 nM)?
Answer: Its value is 21%.

Question: And the “percent inhibition of TTC39A mRNA” value ([2]; 35.0 nM)?
Answer: The value was 29%.

Question: What about the “percent inhibition of TTC39A mRNA” value ([2]; 70.0 nM) of the same sequence?
Answer: The value was 53%.

Question: And the “percent inhibition of TTC39A mRNA” value ([2]; 140.0 nM)?
Answer: Its value is 77%.

Question: What about the IC50 [2] of the same sequence?
Answer: The IC50 was 72 nM.

Question: How did the “% inhibition of murine TTC39A mRNA” value [1] turn out when “GCCTCAGAATCCTGGTGGGA (eG*e[5mC]*e[5mC]*eT*e[5mC]*dA*dG*dA*dA*dT*d[5mC]*d[5mC]*dT*dG*dG*eT*eG*eG*eG*eA; antisense) [ISIS 474437]” was run?
Answer: The value was 94%.

Question: And the “percent inhibition of TTC39A mRNA” value ([2]; 4.375 nM)?
Answer: Its value is 5%.

Question: What about the “percent inhibition of TTC39A mRNA” value ([2]; 8.75 nM) of the same sequence?
Answer: The value was 6%.

Question: What about the “percent inhibition of TTC39A mRNA” value ([2]; 17.5 nM) of the same sequence?
Answer: Its value is 26%.

Question: What about the “percent inhibition of TTC39A mRNA” value ([2]; 35.0 nM) of the same sequence?
Answer: Its value is 36%.

Question: And the “percent inhibition of TTC39A mRNA” value ([2]; 70.0 nM)?
Answer: Its value is 62%.

Question: What about the “percent inhibition of TTC39A mRNA” value ([2]; 140.0 nM) of the same sequence?
Answer: The value was 82%.

Question: And the IC50 [2]?
Answer: The IC50 was 49 nM.

Question: For “CCGCACTTTGATGCCGCCCT (e[5mC]*e[5mC]*eG*e[5mC]*eA*d[5mC]*dT*dT*dT*dG*dA*dT*dG*d[5mC]*d[5mC]*eG*e[5mC]*e[5mC]*e[5mC]*eT; antisense) [ISIS 474435]”, which “% inhibition of murine TTC39A mRNA” value [1] is on record?
Answer: Its value is 94%.

Question: And the “percent inhibition of TTC39A mRNA” value ([2]; 4.375 nM)?
Answer: The value was 0%.

Question: What about the “percent inhibition of TTC39A mRNA” value ([2]; 8.75 nM) of the same sequence?
Answer: The value was 2%.

Question: And the “percent inhibition of TTC39A mRNA” value ([2]; 17.5 nM)?
Answer: The value was 11%.

Question: What about the “percent inhibition of TTC39A mRNA” value ([2]; 35.0 nM) of the same sequence?
Answer: The value was 8%.

Question: And the “percent inhibition of TTC39A mRNA” value ([2]; 70.0 nM)?
Answer: Its value is 52%.

Question: And the “percent inhibition of TTC39A mRNA” value ([2]; 140.0 nM)?
Answer: The value was 76%.

Question: And the IC50 [2]?
Answer: Its IC50 is 67 nM.

Question: For “TCGGTGCCTCTGACACAGCG (eT*e[5mC]*eG*eG*eT*dG*d[5mC]*d[5mC]*dT*d[5mC]*dT*dG*dA*d[5mC]*dA*e[5mC]*eA*eG*e[5mC]*eG; antisense) [ISIS 474474]”, which “% inhibition of murine TTC39A mRNA” value [1] is on record?
Answer: Its value is 97%.

Question: What about the “percent inhibition of TTC39A mRNA” value ([2]; 4.375 nM) of the same sequence?
Answer: The value was 0%.

Question: And the “percent inhibition of TTC39A mRNA” value ([2]; 8.75 nM)?
Answer: The value was 5%.

Question: What about the “percent inhibition of TTC39A mRNA” value ([2]; 17.5 nM) of the same sequence?
Answer: The value was 27%.

Question: And the “percent inhibition of TTC39A mRNA” value ([2]; 35.0 nM)?
Answer: Its value is 56%.

Question: And the “percent inhibition of TTC39A mRNA” value ([2]; 70.0 nM)?
Answer: The value was 72%.

Question: What about the “percent inhibition of TTC39A mRNA” value ([2]; 140.0 nM) of the same sequence?
Answer: The value was 87%.

Question: What about the IC50 [2] of the same sequence?
Answer: Its IC50 is 33 nM.

Question: Which results are given for “GCATGTAGAGAACTTCCAGG (eG*e[5mC]*eA*eT*eG*dT*dA*dG*dA*dG*dA*dA*d[5mC]*dT*dT*e[5mC]*e[5mC]*eA*eG*eG; antisense) [ISIS 474382]”?
Answer: % inhibition of murine TTC39A mRNA [1]: 95%; percent inhibition of TTC39A mRNA ([2]; 4.375 nM): 0%; percent inhibition of TTC39A mRNA ([2]; 8.75 nM): 10%; percent inhibition of TTC39A mRNA ([2]; 17.5 nM): 24%; percent inhibition of TTC39A mRNA ([2]; 35.0 nM): 41%; percent inhibition of TTC39A mRNA ([2]; 70.0 nM): 68%; percent inhibition of TTC39A mRNA ([2]; 140.0 nM): 80%; IC50 [2]: 42 nM

Question: For “TCCATGGAGTAGTTCTTGTA (eT*e[5mC]*e[5mC]*eA*eT*dG*dG*dA*dG*dT*dA*dG*dT*dT*d[5mC]*eT*eT*eG*eT*eA; antisense) [ISIS 474452]”, which “% inhibition of murine TTC39A mRNA” value [1] is on record?
Answer: The value was 92%.

Question: And the “percent inhibition of TTC39A mRNA” value ([2]; 4.375 nM)?
Answer: The value was 0%.

Question: What about the “percent inhibition of TTC39A mRNA” value ([2]; 8.75 nM) of the same sequence?
Answer: Its value is 9%.

Question: And the “percent inhibition of TTC39A mRNA” value ([2]; 17.5 nM)?
Answer: Its value is 36%.

Question: What about the “percent inhibition of TTC39A mRNA” value ([2]; 35.0 nM) of the same sequence?
Answer: Its value is 46%.

Question: What about the “percent inhibition of TTC39A mRNA” value ([2]; 70.0 nM) of the same sequence?
Answer: The value was 61%.

Question: And the “percent inhibition of TTC39A mRNA” value ([2]; 140.0 nM)?
Answer: Its value is 86%.

Question: And the IC50 [2]?
Answer: The IC50 was 41 nM.

— patent publication US20120270929A1, “MODULATION OF TTC39 EXPRESSION TO INCREASE HDL” (ISIS Pharmaceuticals, Inc., priority 2009, published 2012)
